# Data: BindingDB's records for patent US11591342 (Suzhou Sinovent Pharmaceuticals, 2023)
# Target: Autotaxin (Homo sapiens, UniProt Q13822)
# Test: Bioactivity Assay
# Protocol: Preparation and Treatment. Stock Solution Preparation. A 10 mM DMSO stock solution was formulated for each compound. A 30 mM DMSO stock solution was formulated for positive control HA130. Preservation: The DMSO stock solutions were stored at room temperature in a desiccator for a short period of time or at −20° C. for a long period of time. Preparation All compounds were serially 3-fold diluted in DMSO from 10 μM to the 10th concentration.A 1000× positive control (10 mM, HA130) and a 1000× negative control (100% DMSO) were prepared. The plates were shaken for 5 min. Preparation of 1× Reaction Buffer:>5× reaction buffer and cold water were mixed well in a volume ratio of 1:4. Preparation of 20 U/mL Choline Oxidase Stock Solution:1 tube of choline oxide in a kit was dissolved in 1× reaction buffer. The aliquots were frozen at −20° C. Preparation of 200 U/mL Horseradish Peroxidase (HRP) Stock Solution:1 tube of HRP in a kit was dissolved in 1 mL of 1× reaction buffer. The aliquots were frozen at −20° C. Preparation of 20 mM Amplex Red Reagent (for Detection) Stock Solution Amplex Red reagent and DMSO were equilibrated at room temperature.
row,IC50 [µM],Structure (SMILES)
1,5.53,"CCn1nc2cnc(N3CCN(CC(=O)N4CC(O)C4)CC3)cc2c1N(C)c1nc(-c2ccc(F)cc2)c(C#N)s1 [US11591342, Compound S-0044]"
2,0.648,"CCn1nc2ncc(N3CCN(CC(=O)N4CC(O)C4)CC3)cc2c1N(C)c1nc(-c2ccc(F)cc2)c(C#N)s1 [US11591342, Compound S-0043]"
3,0.039,"CCc1nn2ccc(N3CCN(CC(=O)N4CC(O)C4)CC3)nc2c1N(C)c1nc(-c2ccc(F)cc2)c(C#N)s1 [US11591342, Compound S-0041]"
